Columns and labels:
Assay type in all cases: physicochemical
[1] = Viscosity in aqueous solution at 20° C. (Example 82, Tables 1 and 2); settings: for Viscosity at 400 mgI/ml (CALCULATED): calculated for 400 mgI/ml; for Viscosity 350 mgI/ml (CALCULATED): calculated for 350 mgI/ml
Description: The viscosities in aqueous solution at 20° C. for some further compounds described above were determined and are listed in Table 2. […]

[2] = Viscosity at 37° C. (Table 3); settings: for Viscosity at 350 mgI/ml (CALCULATED): calculated for 350 mgI/ml
[3] = Determination of viscosity (Example 121, flow time in syringe against reference sample); settings: 350 mgI/ml, 20° C.
Description: The apparatus consisted of a thermostated 10 μl graduated sample syringe connected to a conical shaped 100 μl sample vial. The syringe needle as well as a probe for temperature measurements (±0.2° C.) was inserted through an airtight septum at the top of the vial. Through the septum was also inserted a small tubing connected to an air syringe via a PTFE tubing.
To determine viscosity, 15≧75 μl of the sample liquid was placed at the bottom of the sample vial. The liquid was forced up into the sample syringe by a slight over pressure generated manually by the air syringe. When the syringe was almost filled, the over pressure was released so the liquid, forced only by gravity, could flow freely out from the syringe back into the vial. The time for the liquid surface to pass between the marks of e.g. 5 and 10 μl in the syringe was measured […]
The viscosity is calculated as follows: […]
ηS=Viscosity of the sample
ηR=Viscosity of a reference sample with known viscosity and with similar composition as the sample e.g. Iohexol or Iodixanol dS=Density of sample solution dR=Density of reference solution tS=Average time for sample surface to pass between two marks in the syringe tR=Corresponding time for reference sample
The results of these determinations of viscosity for various of the present Examples and two commercially available X-ray contrast media are shown in Table 1′ below. In all cases, the values refer to concentrations of 350 mgI/ml at a temperature of 20° C.

Molecule | Viscosity at 400 mgI/ml (CALCULATED) [1] | Viscosity 350 mgI/ml (CALCULATED) [1] | Viscosity [3] | other results
O=C(NCCO)c1c(I)c(CO)c(I)c(NC(=O)C(O)CO)c1I (stereo not shown) [Example 52, 5-(2,3-Dihydroxypropionylamino)-3-hydroxymethyl-N-(2-hydroxyethyl)-2,4,6-triiodobenzamide] | 9.8 mPas |  |  | Viscosity 20° C. ([1]; concentration 514 mgI/ml): 29 mPas
O=C(NC(CO)(CO)CO)c1c(I)c(CO)c(I)c(N(CCO)C(=O)CO)c1I [Example 55, 5-[N′-(2-Hydroxyethyl)-hydroxyacetamido]-3-hydroxymethyl-N-[tris-(hydroxymethyl)-methyl]-2,4,6-triiodobenzamide] | 19.4 mPas |  |  | Viscosity 20° C. ([1]; concentration 429 mgI/ml): 28 mPas
O=C(C(O)CO)N(CCO)c1c(I)c(CCO)c(I)c(N(CCO)C(=O)C(O)CO)c1I (stereo not shown) [Example 62, 3,5-Bis[N-(2-hydroxyethyl)-2,3-dihydroxypropionylamino]-2,4,6-triiodo-(2-hydroxyethyl)benzene] | 14.3 mPas |  |  | Viscosity 20° C. ([1]; concentration 353 mgI/ml): 9 mPas
O=C(Nc1c(I)c(CC(O)CO)c(I)c(NC(=O)C(O)CO)c1I)C(O)CO (stereo not shown) [Example 64, 3,5-Bis-(2,3-dihydroxypropionylamino)-2,4,6-triiodo-(2,3-dihydroxy-propyl)-benzene] | 13.0 mPas | 8.3 mPas |  | Viscosity 20° C. ([1]; concentration 419 mgI/ml): 16 mPas
CC(O)C(=O)N(CCO)c1c(I)c(CO)c(I)c(C(=O)NC(CO)C(O)CO)c1I (stereo not shown) [Example 65, 5-[N′-(2-Hydroxyethyl)-2-hydroxypropionylamino]-3-hydroxymethyl-N-(1,3,4-trihydroxybut-2-yl)-2,4,6-triiodobenzamide] | 17.8 mPas | 10.4 mPas |  | Viscosity 20° C. ([1]; concentration 413 mgI/ml): 21 mPas
O=C(NCCO)c1c(I)c(CO)c(I)c(N(CC(O)CO)C(=O)C(O)CO)c1I (stereo not shown) [Example 66, 5-[N′-(2,3-Dihydroxypropyl)-2,3-dihydroxypropionylamino]-3-hydroxymethyl-N-(2-hydroxyethyl)-2,4,6-triiodobenzamide] | 15.2 mPas | 9.3 mPas |  | Viscosity 20° C. ([1]; concentration 401 mgI/ml): 15 mPas
O=C(CO)Nc1c(I)c(CO)c(I)c(C(=O)N(CC(O)CO)CC(O)CO)c1I (stereo not shown) [Example 67, 5-(hydroxyacetamido)-3-hydroxymethyl-N,N-bis-(2,3-dihydroxy-propyl)-2,4,6-triiodobenzamide] | 16.2 mPas |  |  | Viscosity 20° C. ([1]; concentration 407 mgI/ml): 18 mPas
O=C(c1c(I)c(CO)c(I)c(N(CCO)C(=O)CO)c1I)N(CC(O)CO)CC(O)CO (stereo not shown) [Example 68, 5-[N′-(2-Hydroxyethyl)-hydroxyacetamido]-3-hydroxymethyl-N,N-bis-(2,3-dihydroxypropyl)-2,4,6-tiiodobenzamide] | 19.1 mPas |  |  | Viscosity 20° C. ([1]; concentration 450 mgI/ml): 31 mPas
CC(O)C(=O)Nc1c(I)c(CO)c(I)c(C(=O)N(CC(O)CO)CC(O)CO)c1I (stereo not shown) [Example 69, 5-(2-Hydroxypropionylamino)-3-hydroxymethyl-N,N-bis-(2,3-dihydroxypropyl)-2,4,6-triiodobenzamide] | 17.0 mPas |  |  | Viscosity 20° C. ([1]; concentration 417 mgI/ml): 21 mPas
O=C(c1c(I)c(CO)c(I)c(N2CCCC(O)C2=O)c1I)N(CC(O)CO)CC(O)CO (stereo not shown) [Example 70, 5-(3-Hydroxy-2-oxo-1-piperidinyl)-3-hydroxymethyl-N,N-bis-(2,3-dihydroxypropyl)-2,4,6-triiodobenzamide] | 27.8 mPas |  |  | Viscosity 20° C. ([1]; concentration 361 mgI/ml): 16 mPas
O=C(CO)Nc1c(I)c(CC(O)CO)c(I)c(NC(=O)CO)c1I (stereo not shown) [Example 71, 3,5-Bis-(Hydroxyacetamido)-2,4,6-triiodo-(2,3-dihydroxypropyl)benzene] | 8.8 mPas | 6.0 mPas |  | Viscosity 20° C. ([1]; concentration 455 mgI/ml): 14 mPas
O=C(CO)Nc1c(I)c(CC(O)CO)c(I)c(N(CCO)C(=O)CO)c1I (stereo not shown) [Example 72, 5-Hydroxyacetamido-3-[N-(2-hydroxyethyl)-hydroxyacetamido]-2,4,6-triiodo-(2,3-dihydroxypropyl)benzene] | 11.0 mPas | 7.2 mPas |  | Viscosity 20° C. ([1]; concentration 432 mgI/ml): 15 mPas
O=C(CO)N(CCO)c1c(I)c(CC(O)CO)c(I)c(N(CCO)C(=O)CO)c1I (stereo not shown) [Example 73, 3,5-Bis-[N,N′-(2-hydroxyethyl)-hydroxyacetamido]-2,4,6-triiodo-(2,3-dihydroxypropyl)benzene] | 10.4 mPas | 6.7 mPas |  | Viscosity 20° C. ([1]; concentration 396 mgI/ml): 10 mPas
O=C(CO)Nc1c(I)c(CC(O)CO)c(I)c(N(CC(O)CO)C(=O)CO)c1I (stereo not shown) [Example 74, 5-Hydroxyacetamido-3-[N-(2,3-dihydroxypropyl)-hydroxyacetamido]-2,4,6-triiodo-(2,3-dihydroxypropyl)benzene] | 15.8 mPas | 9.3 mPas |  | Viscosity 20° C. ([1]; concentration 399 mgI/ml): 16 mPas
O=C(CO)N(CC(O)CO)c1c(I)c(CC(O)CO)c(I)c(N(CC(O)CO)C(=O)CO)c1I (stereo not shown) [Example 75, 3,5-Bis-[N,N′-(2,3-dihydroxypropyl)-hydroxyacetamido]-2,4,6-triiodo-(2,3-dihydroxypropyl)benzene] | 28.4 mPas | 14.6 mPas |  | Viscosity 20° C. ([1]; concentration 359 mgI/ml): 16 mPas
O=C(Nc1c(I)c(CO)c(I)c(NC(=O)C(O)C(O)CO)c1I)C(O)C(O)CO (stereo not shown) [Example 79, N,N′-Bis-(2,3,4-trihydroxybutanoyl)-3,5-diamino-2,4,6-triiodobenzyl alcohol] | 17.2 mPas | 10.4 mPas |  | Viscosity 20° C. ([1]; concentration 379 mgI/ml): 14.4 mPas; Viscosity 37° C. ([2]; 379 mgI/ml): 6.9 mPa·s; Viscosity at 350 mgI/ml (CALCULATED) [2]: 5.9 mPa·s

More lines, main results first:

Viscosity at 400 mgI/ml (CALCULATED) [1] | Viscosity 350 mgI/ml (CALCULATED) [1] | Viscosity [3] | Molecule | other results
14.8 mPas | 9.4 mPas |  | O=C(NCC(O)CO)c1c(I)c(CO)c(I)c(NC(=O)C(O)C(O)CO)c1I (stereo not shown) [Example 80, 5-[N′-(2,3,4-Trihydroxybutanoyl)amino]-3-hydroxymethyl-N-(2,3-dihydroxypropyl)-2,4,6-triiodobenzamide] | Viscosity 20° C. ([1]; concentration 444 mgI/ml): 23 mPas; Viscosity 37° C. ([2]; 444 mgI/ml): 11 mPa·s; Viscosity at 350 mgI/ml (CALCULATED) [2]: 5.2 mPa·s
21.5 mPas | 12.2 mPas |  | O=C(NC(CO)C(O)CO)c1c(I)c(CO)c(I)c(NC(=O)C(O)C(O)CO)c1I (stereo not shown) [Example 81, 5-[N′-(2,3,4-Trihydroxybutanoyl)-amino]-3-hydroxymethyl-N-(1,3,4-trihydroxybut-2-yl)-2,4,6-triiodobenzamide] | Viscosity 20° C. ([1]; concentration 376 mgI/ml): 16.2 mPas; Viscosity 37° C. ([2]; 376 mgI/ml): 8.9 mPa·s; Viscosity at 350 mgI/ml (CALCULATED) [2]: 6.1 mPa·s
 |  | 6.9 mPas | Nc1c(I)c(NC(=O)CO)c(I)c(C(O)C(=O)NC(=O)C(O)CO)c1I (stereo not shown) [Example 98, N-(2,3-Dihydroxypropionyl)-N′-hydroxyacetyl-3,5-diamino-2,4,6-triiodomandeloamide] | 
 |  | 7.4 mPas | Nc1c(I)c(NC(=O)C(O)CO)c(I)c(C(O)C(=O)NC(=O)C(O)CO)c1I (stereo not shown) [Example 99, N,N′-Bis(2,3-Dihydroxypropionyl)-3,5-diamino-2,4,6-triiodomandeloamide] | 
 |  | 17.0 mPas | NC(=O)C(O)c1c(I)c(NC(=O)[C@H](O)[C@@H](O)CO)c(I)c(NC(=O)[C@H](O)[C@@H](O)CO)c1I (stereo partly drawn) [Example 104, N,N′-Bis(2R,3S,4-trihydroxybutyryl)-3,5-diamino-2,4,6-triiodomandeloamide] | 
 |  | 8.8 mPas | NC(=O)C(O)c1c(I)c(NC(=O)CO)c(I)c(NC(=O)[C@H](O)[C@H](O)CO)c1I (stereo partly drawn) [Example 106, N-(2R,3R,4-Trihydroxybutyryl)-N′-hydroxyacetyl-3,5-diamino-2,4,6-triiodomandeloamide] | 
 |  | 7.5 mPas | CC1(C)OCC(CNC(=O)c2c(I)c(NC(=O)C3COC(C)(C)O3)c(I)c(C(C#N)O[Si](C)(C)C)c2I)O1 (stereo not shown) [Example 113, 5-(2,2-Dimethyl-1,3-dioxolane-4-carbamido)-3-(O-trimethylsilyl-cyanomethyl)-N-(2,2-dimethyl-1,3-dioxolane-4-methyl)-2,4,6-triiodobenzamide] | 
 |  | 10.1 mPas | NC(=O)C(O)c1c(I)c(NC(=O)C(O)CO)c(I)c(C(=O)NCC(O)CO)c1I (stereo not shown) [Example 114, 5-(2,3-Dihydroxypropionyl)amino-3-N-(2,3-dihydroxypropyl)carbamido-2,4,6-triiodomandeloamide] | 
 |  | 13.4 mPas | N,N′-Bis(2,3-dihydroxybutyryl)-3,5-diamino-2,4,6-triiodomandeloamide [Example 101] | 
 |  | 9.7 mPas | N-(2R,3S,4-Trihydroxybutyryl)-N′-hydroxyacetyl-3,5-diamino-2,4,6-triiodomandeloamide [Example 100] | 

— patent publication US6448442B1, “Contrast media” (Amersham Health AS, priority 1999, dated 2002)
